# PMC9917560, “Design, Synthesis and Antimicrobial Evaluation of New N-(1-Hydroxy-1,3-dihydrobenzo[c][1,2]oxaborol-6-yl)(hetero)aryl-2-carboxamides as Potential Inhibitors of Mycobacterial Leucyl-tRNA Synthetase” (International Journal of Molecular Sciences, 2023)
# Like-named read-outs stand apart in the source and are kept apart here.
# Experiments:
# [1] = tested on: Aspergillus fumigatus ATCC 204305; assay: Antifungal microdilution broth (EUCAST); type: cell-based; settings: Aspergillus fumigatus, ATCC204305, read-out: MIC Aspergillus fumigatus
# [2] = tested on: Candida albicans CCM 8320 (ATCC 24433); assay: Antifungal microdilution broth (EUCAST); type: cell-based; settings: Candida albicans, read-out: MIC Candida albicans
# [3] = tested on: Mycolicibacterium smegmatis DSM 43,465 (ATCC 607); assay: Antimycobacterial microdilution (resazurin) vs M. smegmatis; type: cell-based; settings: Middlebrook 7H9, resazurin, read-out: MIC M. smeg.
# [4] = tested on: Candida parapsilosis CCM 8260 (ATCC 22019); assay: Antifungal microdilution broth (EUCAST); type: cell-based; settings: Lodderomyces parapsilosis, read-out: MIC Candida parapsilosis
# [5] = tested on: Escherichia coli CCM 3954 (ATCC 25922); assay: Antibacterial microdilution broth (EUCAST); type: cell-based; settings: Escherichia coli, read-out: MIC Escherichia coli
# [6] = tested on: Mycobacterium tuberculosis H37Rv CNCTC My 331/88 (ATCC 27294); assay: Microplate Alamar Blue assay vs Mtb H37Rv; type: cell-based; settings: Mycobacterium tuberculosis, pH 6.6, MABA, Middlebrook 7H9 pH 6.6, recalculated from µg/mL; read-out: MIC Mtb H37Rv
# [7] = tested on: Lichtheimia corymbifera CCM 8077; assay: Antifungal microdilution broth (EUCAST); type: cell-based; settings: Lichtheimia corymbifera, CCM8077, read-out: MIC Lichtheimia corymbifera
# [8] = tested on: methicillin-resistant Staphylococcus aureus subsp. aureus (MRSA) CCM 4750 (ATCC 43300); assay: microbe, parasite or virus in culture; type: cell-based; settings: read-out: MIC Methicillin-resistant Staphylococcus aureus subsp. aureus
# [9] = tested on: Mycobacterium kansasii DSM 44,162 (ATCC 12478); assay: Antimycobacterial microdilution (resazurin) vs M. kansasii; type: cell-based; settings: read-out: MIC M. kansasii
# [10] = tested on: Mycolicibacterium aurum DSM 43,999 (ATCC 23366); assay: Antimycobacterial microdilution (resazurin) vs M. aurum; type: cell-based; settings: Middlebrook 7H9, resazurin, read-out: MIC M. aurum
# [11] = tested on: Pseudomonas aeruginosa CCM 3955 (ATCC 27853); assay: Antibacterial microdilution broth (EUCAST); type: cell-based; settings: read-out: MIC Pseudomonas aeruginosa
# [12] = tested on: Staphylococcus aureus subsp. aureus CCM 4223 (ATCC 29213); assay: Antibacterial microdilution broth (EUCAST); type: cell-based; settings: read-out: MIC Staphylococcus aureus subsp. aureus
# [13] = tested on: Staphylococcus epidermidis CCM 4418 (ATCC 12228); assay: Antibacterial microdilution broth (EUCAST); type: cell-based; settings: read-out: MIC Staphylococcus epidermidis
# [14] = tested on: Candida krusei CCM 8271 (ATCC 6258); assay: Antifungal microdilution broth (EUCAST); type: cell-based; settings: Pichia kudriavzevii, read-out: MIC Candida krusei
# [15] = tested on: Enterococcus faecalis CCM 4224 (ATCC 29212); assay: Antibacterial microdilution broth (EUCAST); type: cell-based; settings: read-out: MIC Enterococcus faecalis
# [16] = tested on: Candida tropicalis CCM 8264 (ATCC 750); assay: Antifungal microdilution broth (EUCAST); type: cell-based; settings: read-out: MIC Candida tropicalis
# [17] = tested on: Acinetobacter baumannii DSM 30007 (ATCC 19606); assay: Antibacterial microdilution broth (EUCAST); type: cell-based; settings: read-out: MIC Acinetobacter baumannii
# [18] = tested on: Klebsiella pneumoniae CCM 4415 (ATCC 10031); assay: Antibacterial microdilution broth (EUCAST); type: cell-based; settings: Klebsiella pneumoniae, read-out: MIC Klebsiella pneumoniae
# [19] = tested on: Trichophyton interdigitale CCM 8377 (ATCC 9533); assay: Antifungal microdilution broth (EUCAST); type: cell-based; settings: Trichophyton interdigitale, read-out: MIC Trichophyton interdigitale
# [20] = tested on: Mycobacterium tuberculosis H37Ra ITM-M006710 (ATCC 9431); assay: Antimycobacterial microdilution (resazurin) vs Mtb H37Ra; type: cell-based; settings: Middlebrook 7H9, resazurin, recalculated from µg/mL, read-out: MIC Mtb H37Ra
# HepG2 cell line = assay: Cytotoxicity screening, CellTiter 96 assay; settings: for IC50: Homo sapiens, HepG2, 24 h, read-out: IC50 HepG2
# [21] = tested on: Aspergillus flavus CCM 8363; assay: Antifungal microdilution broth (EUCAST); type: cell-based; settings: Aspergillus flavus, CCM8363, read-out: MIC Aspergillus flavus
# [22] = tested on: Mycobacterium avium DSM 44,156 (ATCC 25291); assay: Antimycobacterial microdilution (resazurin) vs M. avium; type: cell-based; settings: Mycobacterium avium, Middlebrook 7H9, resazurin; read-out: MIC M. avium
smiles,measurement,setting,value
"O=C(Nc1ccc2c(c1)B(O)OC2)c1cnccn1 [Compound 1, N-(1-hydroxy-1,3-dihydrobenzo[c][1,2]oxaborol-6-yl)pyrazine-2-carboxamide]",MIC,[1]; 24h incubation,> 500 µM
same,MIC,[1]; 48h incubation,> 500 µM
same,MIC,[2]; 24h incubation,> 500 µM
same,MIC,[2]; 48h incubation,> 500 µM
same,MIC,[3],30.6 µM
same,MIC,[4]; 24h incubation,> 500 µM
same,MIC,[4]; 48h incubation,> 500 µM
same,MIC,[5]; 24h incubation,> 500 µM
same,MIC,[5]; 48h incubation,> 500 µM
same,MIC,[6],49 µM
same,MIC,[7]; 24h incubation,> 500 µM
same,MIC,[7]; 48h incubation,> 500 µM
same,MIC,[8]; 24 h,500 µM
same,MIC,[8]; 48 h,500 µM
same,MIC,"[9]; Middlebrook 7H9, resazurin",30.6 µM
same,MIC,[10],15.3 µM
same,melting point,,261.3 to 262.3 °C
same,MIC,[11]; 24h incubation,> 500 µM
same,MIC,[11]; 48h incubation,> 500 µM
same,MIC,[12]; 24h incubation,250 µM
same,MIC,[12]; 48h incubation,250 µM
same,MIC,[13]; 24h incubation,500 µM
same,MIC,[13]; 48h incubation,500 µM
same,MIC,[14]; 24h incubation,> 500 µM
same,MIC,[14]; 48h incubation,> 500 µM
same,MIC,[15]; 24h incubation,> 500 µM
same,MIC,[15]; 48h incubation,> 500 µM
same,MIC,[16]; 24h incubation,> 500 µM
same,MIC,[16]; 48h incubation,> 500 µM
same,MIC,[17]; 24h incubation,> 500 µM
same,MIC,[17]; 48h incubation,> 500 µM
same,MIC,[18]; 24h incubation,> 500 µM
same,MIC,[18]; 48h incubation,> 500 µM
same,MIC,[19]; 72h incubation,> 500 µM
same,MIC,[19]; 120h incubation,> 500 µM
same,MIC,[20],123 µM
same,IC50,HepG2 cell line,> 1000 µM
same,MIC,[21]; 24h incubation,> 500 µM
same,MIC,[21]; 48h incubation,> 500 µM
same,MIC,[22],123 µM
"Cc1cnc(C(=O)Nc2ccc3c(c2)B(O)OC3)cn1 [Compound 2, N-(1-hydroxy-1,3-dihydrobenzo[c][1,2]oxaborol-6-yl)-5-methylpyrazine-2-carboxamide]",MIC,[1]; 24h incubation,> 500 µM
same,MIC,[1]; 48h incubation,> 500 µM
same,MIC,[2]; 24h incubation,> 500 µM
same,MIC,[2]; 48h incubation,> 500 µM
same,MIC,[3],29 µM
same,MIC,[4]; 24h incubation,> 500 µM
same,MIC,[4]; 48h incubation,> 500 µM
same,MIC,[5]; 24h incubation,> 500 µM
same,MIC,[5]; 48h incubation,> 500 µM
same,MIC,[6],46.5 µM
same,MIC,[7]; 24h incubation,> 500 µM
same,MIC,[7]; 48h incubation,> 500 µM
same,MIC,[8]; 24 h,> 500 µM
same,MIC,[8]; 48 h,> 500 µM
same,MIC,[9],58.1 µM
same,MIC,[10],14.5 µM
same,melting point,,215 to 216.1 °C
same,MIC,[11]; 24h incubation,> 500 µM
same,MIC,[11]; 48h incubation,> 500 µM
same,MIC,[12]; 24h incubation,250 µM
same,MIC,[12]; 48h incubation,250 µM
same,MIC,[13]; 24h incubation,500 µM
same,MIC,[13]; 48h incubation,500 µM
same,MIC,[14]; 24h incubation,> 500 µM
same,MIC,[14]; 48h incubation,> 500 µM
same,MIC,[15]; 24h incubation,> 500 µM
same,MIC,[15]; 48h incubation,> 500 µM
same,MIC,[16]; 24h incubation,> 500 µM
same,MIC,[16]; 48h incubation,> 500 µM
same,MIC,[17]; 24h incubation,> 500 µM
same,MIC,[17]; 48h incubation,> 500 µM
same,MIC,[18]; 24h incubation,> 500 µM
same,MIC,[18]; 48h incubation,> 500 µM
same,MIC,[19]; 72h incubation,> 500 µM
same,MIC,[19]; 120h incubation,> 500 µM
same,MIC,[20],58.1 µM
same,IC50,HepG2 cell line,> 500 µM
same,toxicity to HepG2 up to highest tested concentration,"HepG2 cell line; tested up to 500 µM (2, 3), 250 µM (12, 17), 100 µM (6, 7, 11) because of solubility",non-toxic
same,MIC,[21]; 24h incubation,> 500 µM
same,MIC,[21]; 48h incubation,> 500 µM
same,MIC,[22],58.1 µM
